Columns and labels:
glucocorticoid receptors [1] = target: T1, glucocorticoid receptors (Homo sapiens, UniProt P04150); assay: GR functional assay using SW1353/MMTV-5 cells (dexamethasone-induced luciferase); format: cell-based; set-up: contains endogenous glucocorticoid receptors; endogenous in cells; host or cells: SW1353/MMTV-5 (human chondrosarcoma, stably carrying the pMAMneo-Luc reporter); details: read-out: GR Functional
T1 sequence (P04150 1-777): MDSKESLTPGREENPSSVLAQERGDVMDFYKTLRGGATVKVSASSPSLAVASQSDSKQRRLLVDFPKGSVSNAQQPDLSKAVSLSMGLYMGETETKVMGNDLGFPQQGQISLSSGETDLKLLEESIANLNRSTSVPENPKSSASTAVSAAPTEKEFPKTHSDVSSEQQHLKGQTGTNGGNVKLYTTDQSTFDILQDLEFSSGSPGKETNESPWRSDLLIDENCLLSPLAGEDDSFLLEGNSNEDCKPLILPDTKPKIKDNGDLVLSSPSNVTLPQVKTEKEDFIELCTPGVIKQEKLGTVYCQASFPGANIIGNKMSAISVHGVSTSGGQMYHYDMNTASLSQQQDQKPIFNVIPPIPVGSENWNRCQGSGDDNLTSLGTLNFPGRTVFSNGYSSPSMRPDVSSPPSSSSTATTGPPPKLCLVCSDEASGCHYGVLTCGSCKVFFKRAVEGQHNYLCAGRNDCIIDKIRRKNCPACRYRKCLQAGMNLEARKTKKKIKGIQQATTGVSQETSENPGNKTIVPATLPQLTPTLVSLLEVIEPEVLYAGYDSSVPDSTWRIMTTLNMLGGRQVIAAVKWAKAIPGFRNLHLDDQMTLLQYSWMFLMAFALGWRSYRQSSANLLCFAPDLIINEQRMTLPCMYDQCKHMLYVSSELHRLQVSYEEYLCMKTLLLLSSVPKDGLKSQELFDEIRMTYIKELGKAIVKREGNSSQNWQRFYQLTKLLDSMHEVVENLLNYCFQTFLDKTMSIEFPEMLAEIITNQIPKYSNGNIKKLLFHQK
Procedure: SW1353/MMTV-5 is an adherent human chondrosarcoma cell line that contains endogenous glucocorticoid receptors. It was transfected with a plasmid (pMAMneo-Luc) encoding firefly luciferase located behind a glucocorticoid-responsive element (GRE) derived from a viral promoter (long terminal repeat of mouse mammary tumor virus). A stable cell line SW1353/MMTV-5 was selected with geneticin, which was required to maintain this plasmid.
SW1353/MMTV-5 cells were distributed in 96-well plates and incubated in medium (without geneticin) for 24 hrs (in the absence of CO2).

glucocorticoid receptors [2] = target: T1, glucocorticoid receptors; assay: Glucocorticoid receptor binding displacement assay with 3H-dexamethasone; set-up: This GR was a full-length steroid hormone receptor; host or cells: recombinant baculovirus-infected insect cells; details: Ki from IC50 by Cheng-Prusoff; 2.5 nM 3H-dexamethasone; read-out: GR Binding
Procedure: The source of the receptor was recombinant baculovirus-infected insect cells. This GR was a full-length steroid hormone receptor likely to be associated with heat-shock and other endogenous proteins.
For the Primary Screen, test compounds were tested at 1 μM in duplicate. These compounds were diluted from 10 mM stock in 100% DMSO. After dilution to 100 μM, 5 μl were added to 245 μl assay buffer to obtained 2 μM compound and 2% DMSO.
For the IC50 determinations, test compounds were tested at 6 concentrations in duplicate (concentration range depends on % inhibition binding that was obtained in the Primary Screen). Test compounds were diluted from 10 mM stock in 100% DMSO. The tested solutions were prepared at 2× final assay concentration in 2% DMSO/assay buffer.
All reagents and the assay plate were kept on ice during the addition of reagents. […] After the additions, the incubation mixture was mixed and incubated for 2.5 hrs at 4° C.
After 2.5 hrs incubation, unbound counts were removed with dextran coated charcoal (DCC) as follows: 25 μl of DCC solution (10% DCC in assay buffer) was added to all wells and mixed (total volume 225 μl). The plate was centrifuged at 4000 rpm for 10 minutes at 4° C. 75 μl of the supernatants (i.e.⅓ of total volume) was carefully pipetted into an optiplate. 200 μl of scintillation cocktail were added (Microscint-40, Packard Bioscience. B.V.). The plate was vigorously shaken for approx. 10 minutes and counted on Topcount.
The IC50 values were converted to Ki (the inhibition constant) using the Cheng-Prusoff equation.
Reagents: Assay buffer: 10 mM potassium phosphate buffer pH 7.6 containing 5 mM DTT, 10 mM sodium molybdate, 100 μM EDTA and 0.1% BSA.

[3] = SW1353/MMTV-5 cells, antagonism of 50 nM dexamethasone, luciferase

Row | Structure (SMILES) | Ki (glucocorticoid receptors [1]) [µM] | Ki (glucocorticoid receptors [2]) [µM] | Ki (glucocorticoid receptors [1]; [3]) [µM]
1 | COC(=O)[C@]12Cc3cnn(-c4ccc(F)cc4)c3C=C1CCN(S(=O)(=O)c1ccc(C(C)(C)C)cc1)C2 | 0.01 to 0.1 | < 0.01 | –
2 | CCCCn1ncc2c1C=C1CCN(S(=O)(=O)c3ccc(C(C)(C)C)cc3)C[C@@]1(C(=O)OC)C2 | > 0.1 | 0.01 to 0.1 | –
3 | COC(=O)[C@]12Cc3cnn(C(C)C)c3C=C1CCN(S(=O)(=O)c1ccc(C(C)(C)C)cc1)C2 | > 0.1 | 0.01 to 0.1 | –
4 | CC(C)(C)c1ccc(S(=O)(=O)N2CCC3=Cc4c(cnn4-c4ccc(F)cc4)C[C@]3(CO)C2)cc1 | 0.01 to 0.1 | < 0.01 | –
5 | O=S(=O)(c1ccc(F)cc1)N1CCC2=Cc3c(cnn3-c3ccc(F)cc3)C[C@]2(CO)C1 | > 0.1 | < 0.01 | –
6 | Cc1ccc(S(=O)(=O)N2CCC3=Cc4c(cnn4-c4ccc(F)cc4)C[C@]3(CO)C2)cc1 | 0.01 to 0.1 | < 0.01 | –
7 | COC[C@]12Cc3cnn(-c4ccc(F)cc4)c3C=C1CCN(S(=O)(=O)c1ccc(C(C)(C)C)cc1)C2 | < 0.01 | < 0.01 | –
8 | COCCOC[C@]12Cc3cnn(-c4ccc(F)cc4)c3C=C1CCN(S(=O)(=O)c1ccc(C(C)(C)C)cc1)C2 | < 0.01 | < 0.01 | –
9 | O=S(=O)(c1ccccc1)N1CCC2=Cc3c(cnn3-c3ccc(F)cc3)C[C@]2(COCCO)C1 | 0.01 to 0.1 | < 0.01 | –
10 | CCOC[C@]12Cc3cnn(-c4ccc(F)cc4)c3C=C1CCN(S(=O)(=O)c1ccc(C(C)(C)C)cc1)C2 | < 0.01 | < 0.01 | –
11 | CC(C)(C)c1ccc(S(=O)(=O)N2CCC3=Cc4[nH]ncc4CC3(Cc3ccccc3)C2)cc1 (centres unmarked) [drawing 229] | – | < 0.01 | 0.01 to 0.1
12 | O=S(=O)(c1ccc(N2CCOCC2)cc1)N1CCC2=Cc3[nH]ncc3CC2(Cc2ccccc2)C1 (centres unmarked) [drawing 230] | – | < 0.01 | > 0.1
13 | CN1CCOc2cc(S(=O)(=O)N3CCC4=Cc5[nH]ncc5CC4(Cc4ccccc4)C3)ccc21 (centres unmarked) [drawing 231] | – | < 0.01 | > 0.1
14 | Cn1cc2c(n1)C=C1CCN(S(=O)(=O)c3ccc(C(C)(C)C)cc3)CC1(Cc1ccccc1)C2 (centres unmarked) [drawing 232] | > 0.1 | < 0.01 | –
15 | CC(C)(C)c1ccc(S(=O)(=O)N2CCC3=Cc4c(cnn4-c4ccc(F)cc4)CC3(Cc3ccccc3)C2)cc1 (centres unmarked) [drawing 233] | 0.01 to 0.1 | < 0.01 | –
16 | CC(C)(C)c1ccc(S(=O)(=O)N2CCC3=Cc4c(cnn4Cc4ccccc4)CC3(Cc3ccccc3)C2)cc1 (centres unmarked) [drawing 237] | > 0.1 | < 0.01 | –

Row | Structure (SMILES) | Ki (glucocorticoid receptors [1]) [µM] | Ki (glucocorticoid receptors [2]) [µM] | Ki (glucocorticoid receptors [1]; [3]) [µM]
17 | CC(C)(C)c1ccc(S(=O)(=O)N2CCC3=Cc4c(cnn4-c4ccc(C#N)cc4)CC3(Cc3ccccc3)C2)cc1 (centres unmarked) [drawing 239] | 0.01 to 0.1 | < 0.01 | –
18 | CC(C)(C)c1ccc(S(=O)(=O)N2CCC3=Cc4c(cnn4-c4ccc(S(N)(=O)=O)cc4)CC3(Cc3ccccc3)C2)cc1 (centres unmarked) [drawing 240] | > 0.1 | 0.01 to 0.1 | –
19 | CC(C)(C)c1ccc(S(=O)(=O)N2CCC3=Cc4c(cnn4Cc4cccc(O)c4)CC3(Cc3ccccc3)C2)cc1 (centres unmarked) [drawing 241] | > 0.1 | > 0.1 | –
20 | Fc1ccc(-n2ncc3c2C=C2CCN(Cc4ccccc4)CC2(Cc2ccccc2)C3)cc1 (centres unmarked) [drawing 242] | > 0.1 | 0.01 to 0.1 | –
21 | COc1ccc(CC23Cc4cnn(-c5ccc(F)cc5)c4C=C2CCN(Cc2ccccc2)C3)cc1 (centres unmarked) [drawing 244] | > 0.1 | < 0.01 | –
22 | CC(C)(C)c1ccc(S(=O)(=O)N2CCC3=Cc4[nH]ncc4CC3(Cc3ccccc3)C2)cc1 (centres unmarked) [drawing 245] | 0.01 to 0.1 | < 0.01 | –
23 | O=S(=O)(c1ccc(N2CCOCC2)cc1)N1CCC2=Cc3[nH]ncc3CC2(Cc2ccccc2)C1 (centres unmarked) [drawing 246] | > 0.1 | < 0.01 | –
24 | CN1CCOc2cc(S(=O)(=O)N3CCC4=Cc5[nH]ncc5CC4(Cc4ccccc4)C3)ccc21 (centres unmarked) [drawing 247] | > 0.1 | < 0.01 | –
25 | Cn1cc2c(n1)C=C1CCN(S(=O)(=O)c3ccc(C(C)(C)C)cc3)CC1(Cc1ccccc1)C2 (centres unmarked) [drawing 248] | – | < 0.01 | > 0.1
26 | CC(C)(C)c1ccc(S(=O)(=O)N2CCC3=Cc4c(cnn4-c4ccc(F)cc4)CC3(Cc3ccccc3)C2)cc1 (centres unmarked) [drawing 249] | – | < 0.01 | 0.01 to 0.1
27 | CC(C)(C)c1ccc(S(=O)(=O)N2CCC3=Cc4c(cnn4Cc4ccccc4)CC3(Cc3ccccc3)C2)cc1 (centres unmarked) [drawing 253] | – | < 0.01 | > 0.1
28 | CC(C)(C)c1ccc(S(=O)(=O)N2CCC3=Cc4c(cnn4-c4ccc(C#N)cc4)CC3(Cc3ccccc3)C2)cc1 (centres unmarked) [drawing 255] | – | < 0.01 | 0.01 to 0.1
29 | CC(C)(C)c1ccc(S(=O)(=O)N2CCC3=Cc4c(cnn4-c4ccc(S(N)(=O)=O)cc4)CC3(Cc3ccccc3)C2)cc1 (centres unmarked) [drawing 256] | – | 0.01 to 0.1 | > 0.1
30 | Fc1ccc(-n2ncc3c2C=C2CCN(Cc4ccccc4)CC2(Cc2ccccc2)C3)cc1 (centres unmarked) [drawing 258] | – | 0.01 to 0.1 | > 0.1
31 | COc1ccc(CC23Cc4cnn(-c5ccc(F)cc5)c4C=C2CCN(Cc2ccccc2)C3)cc1 (centres unmarked) [drawing 260] | – | < 0.01 | > 0.1

From patent US8557839B2, “Fused ring azadecalin glucocorticoid receptor modulators” (Corcept Therapeutics, Inc., priority 2004, dated 2013)
